How the values were obtained:
Aβ1-42 = molecular target: T1, Aβ1-42 (Homo sapiens, UniProt P05067); test: Inhibition of the precipitation of Aβ1-42 by the addition of ligand (Micro BCA assay of soluble/aggregated peptide); type: biochemical; settings: Aβ1-42 5 μM, pH 7.4; for CuCl2 % soluble Aβ: 20 μM CuCl2, 1 h 37° C. then 1 h with 200 μM ligand; for FeCl3 % soluble Aβ: 20 μM FeCl3, 1 h 37° C. then 1 h with 200 μM ligand; for ZnCl2 % soluble Aβ: 20 μM ZnCl2, 1 h 37° C. then 1 h with 200 μM ligand; for without metal % soluble Aβ: no metal salt, 1 h 37° C. then 1 h with 200 μM ligand
T1 construct: The β-amyloid peptide Aβ1-42 (Aβ1-42) was synthesised, purified (to a purity greater than 95%); made in house; host or cells: chemical peptide synthesis (no expression host)
T1 sequence (P05067 672-713): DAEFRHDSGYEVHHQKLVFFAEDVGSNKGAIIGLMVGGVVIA
Procedure: After a further hour of incubation, the reaction mixture is centrifuged.
Before use, the water [of Milli-Q Millipore quality] and all buffer solutions were treated on Chelex-100 resin (Biorad) (5 mg/ml) and filtered through 0.2 μm filters (Whatman) to remove potential traces of metal ions or particles.
Working solutions of the peptide were prepared by solubilising 1 mg of lyophilised peptide in 500 μl of water and 500 μl of an aqueous NaOH solution pH=12.0, while stirring in a Thermomixer Comfort (Eppendorf). The peptide preparations are subsequently centrifuged for 10 minutes at 9,000 rpm and the supernatant is used as an “Aβ stock” solution. The concentration of peptide in the “Aβ stock” is determined immediately by colorimetric assay using a Micro BCA Protein Assays kit (Pierce) from standard ranges produced using known amounts of bovine serum albumin (BSA) then the Aβ1-42 peptide solution is aliquoted and frozen rapidly in liquid nitrogen prior to being stored at −20° C. until being used.
Salts are generated by adding one hydrochloric acid equivalent per nitrogen group equivalent of the ligand dissolved in DMSO. After evaporation of the solvent, these salts are dissolved at the desired concentration with DMSO and kept at −20° C. until they are used.
The protocol was established from works by: C. S. Atwood et al., J. Neurochem. […] The final concentrations are given. 500 μl of Aβ1-42 (5 μM is set to aggregate in 20 mM Tris-HCl buffer containing 150 mM NaCl (pH=7.4) for 1 hour at 37° C. while stirring at 1,400 rpm in the absence or presence of metal ions: CuCl2, ZnCl2 or FeCl3 (20 μM). Then 50 pi of ligand to be tested (200 μM) dissolved in DMSO are added and the samples are incubated for 1 further hour at 37° C. while stirring at 1,400 rpm. The samples without ligand also receive 50 μl of DMSO. The samples (final volume=550 μ) are subsequently centrifuged for 20 min at 9,000 rpm, and 500 μl of supernatant are removed. The tube containing the precipitation pellet then receives 450 μl of assay buffer/DMSO mixture (91/9, v/v). […] Quantification is carried out on the basis of standard BSA ranges. The amounts of Aβ1-42 actually contained in the pellet and the supernatant are obtained after a correction due to the presence of a residual portion of supernatant in the pellet-containing fraction.
For the control experiments with derivatives comprising a single quinoline residue, […] of ligand were added because complexes of type L2Cu are conventionally used in these cases.

[1] = Determination of log D7.4 (1-octanol / Tris-HCl buffer); type: physicochemical; settings: 1-octanol / 20 mM Tris-HCl buffer containing 150 mM NaCl (pH = 7.4) (1/1, v/v)
Procedure: The ligand (2.0 mg) is dissolved in 2 ml of 1-octanol then 2 ml of 20 mM Tris-HCl buffer, pH=7.4 containing 150 mM NaCl are added. After mixing in a vortex for 3 min at ambient temperature, followed by centrifugation for 5 min at 9,000 rpm, the concentration of the ligand in each phase is determined by UV-visible spectrophotometry. The 1-octanol fractions are thus redivided until reproducible values of coefficient of division of obtained. This coefficient is expressed as the decimal logarithm of [(the concentration of ligand contained in the 1-octanol phase)/(the concentration of ligand contained in the buffered aqueous phase)]=log D7.4. Measurements were taken three times.

[2] = Hydrogen peroxide produced by Aβ1-42 in the presence of CuCl2, ascorbate, air and ligand (Amplex Red H2O2/HRP); type: biochemical; settings: CuCl2 0.4 μM, ascorbate 10 μM, air
Procedure: (§1) FIG. 11: Variation in H2O2 production by copper complexes of Aβ1-42 peptide as a function of the Cu(II)/Aβ stoichiometry. Experiments are carried out for 5 minutes in a sodium phosphate buffer (pH=7.4) in the presence 0.4 μM CuCl2, 10 μM ascorbate and air with or without 0.4 μM of 3 or 7. The H2O2 released is quantified by means of an Amplex-Red H2O2/HRP Assay kit.
(§2) The final concentrations are given. The reactions were carried out in the dark in mM sodium phosphate buffer (pH=7.4). Aβ1-42 (0.2 μM) and CuCl2 (0.4 μM) were pre-incubated for 1 hour at 37° C. while stirring at 1,400 rpm in 375 μl of buffer. Then 2 μl of a solution of ligand to be investigated (0.2; 0.4 or 0.8 μM) in DMSO were added. After incubation for a further hour, 2 μl of an aqueous sodium ascorbate solution (10 μM) were added and incubation was continued for 5 min while stirring. The amount of H2O2 produced is then quantified using an Amplex Red H2O2/HRP Assay Kit (Molecular Probes) while adding a volume of assay reagent to the samples, then incubating them for 1 hour at 37° C. while stirring at 500 rpm. […] Quantification is carried out on the basis of standard curves obtained with known amounts of H2O2.
(§3) The figures in the tables correspond to the amount of H2O2 (expressed in nanomoles) added using an Amplex Red H2O2/HRP Assay kit.

[3] = molecular target: T2, copper complexes of Aβ1-42 peptide (Homo sapiens, UniProt P05067); test: as above; type: biochemical; settings: CuCl2 0.4 μM, ascorbate 10 μM, air
T2 construct: The β-amyloid peptide Aβ1-42 (Aβ1-42) was synthesised, purified (to a purity greater than 95%); made in house; host or cells: chemical peptide synthesis (no expression host)
T2 sequence (P05067 672-713 limits assumed, one chain of several): as the sequence (P05067 672-713) above
Procedure: as §1, §2, §3

[4] = molecular target: T2, copper complexes of Aβ1-42 peptide; test: Stability of H2O2 during the H2O2 production inhibition experiments (known amount of H2O2 added); type: biochemical; settings: Aβ1-42 0.2 μM, Cu(II) 0.4 μM, ascorbate 10 μM, ligand 0.4 μM
Procedure: (§4) The final concentrations are given. The reactions were carried out in the dark in mM sodium phosphate buffer (pH=7.4). Aβ1-42 (0.2 μM) and CuCl2 (0.4 μM) were pre-incubated for 1 hour at 37° C. while stirring at 1,400 rpm in 375 μl of buffer. Then 2 μl of a solution of ligand to be investigated (0.2; 0.4 or 0.8 μM) in DMSO were added. After incubation for a further hour, 2 μl of an aqueous sodium ascorbate solution (10 μM) were added and incubation was continued for 5 min while stirring. The amount of H2O2 produced is then quantified using an Amplex Red H2O2/HRP Assay Kit (Molecular Probes) while adding a volume of assay reagent to the samples, then incubating them for 1 hour at 37° C. while stirring at 500 rpm. H2O2 is then detected by spectrophotometry at 563 nm. Quantification is carried out on the basis of standard curves obtained with known amounts of H2O2.
(§5) Experiments were also carried out in the presence of a known amount of H2O2, added just before or just after the addition of sodium ascorbate, in order to investigate the stability of H2O2 under the experimental conditions employed.

[5] = test system: copper complexes of Aβ1-42 peptide; test: as above; type: biochemical; settings: for theoretical value of H2O2 if there is no degradation (in parentheses): ascorbate, ligand; for H2O2 assayed: no Aβ1-42, Cu(II) 0.4 μM, ascorbate 10 μM, ligand 0.4 μM
Procedure: as §4, §5

[6] = 3.0 nanomoles H2O2 added just before the ascorbate

SMILES	CuCl2 % soluble Aβ (Aβ1-42) [%]	FeCl3 % soluble Aβ (Aβ1-42) [%]	ZnCl2 % soluble Aβ (Aβ1-42) [%]	without metal % soluble Aβ (Aβ1-42) [%]	logD at 3 min [1]	amount of H2O2, without Aβ1-42 ([2]; ligand 1 eq/Cu(II) (0.4 μM)) [nmol]	amount of H2O2, without Aβ1-42 ([2]; ligand 2 eq/Cu(II)) [nmol]	amount of H2O2, 0.2 μM Aβ1-42 Cu/Aβ = 2 ([3]; ligand 1 eq/Cu(II) (0.4 μM)) [nmol]	amount of H2O2, 0.5 μM Aβ1-42 Cu/Aβ = 0.75 ([3]; ligand 1 eq/Cu(II) (0.4 μM)) [nmol]	amount of H2O2, 0.2 μM Aβ1-42 Cu/Aβ = 2 ([3]; ligand 2 eq/Cu(II)) [nmol]	amount of H2O2, 0.5 μM Aβ1-42 Cu/Aβ = 0.75 ([3]; ligand 2 eq/Cu(II)) [nmol]	H2O2 assayed [4, 6] [nmol]	H2O2 assayed ([4]; no H2O2 added) [nmol]	theoretical value of H2O2 if there is no degradation (in parentheses) ([5]; Aβ1-42 0.2 μM, Cu(II), 3.0 nanomoles H2O2 added just before the ascorbate) [nmol]	H2O2 assayed [5, 6]	H2O2 assayed ([5]; no H2O2 added) [nmol]	theoretical value of H2O2 if there is no degradation (in parentheses) ([5]; no Aβ1-42, Cu(II), 3.0 nanomoles H2O2 added just before the ascorbate)
Nc1cccc2cccnc12 [8-aminoquinoline, reference compound]	40	58	67	66 ± 3	1.9 ± 0.1												
Oc1cccc2cccnc12 [8-hydroxyquinoline, reference compound]	70 ± 3	80	88	85	2.1 ± 0.1	2.02	0.62	0.69	0.75	0.71 ± 0.05	0.62						
Oc1ccc(Cl)c2ccc(Cc3ccc4c(Cl)ccc(O)c4n3)nc12 [Compound 2, 2,2′-methanediyl-bis(5-chloro-8-hydroxyquinoline)]	45 ± 5	58	57	66	3.5 ± 0.1	0.56		0.80 ± 0.23	0.61								
O=C(Nc1cccc2cccnc12)c1cccc2cccnc12 [Compound 24, N-8-quinolinyl-8-quinoline carboxamide]	21	38	21	64	2.6 ± 0.1	0.49		0.62	0.47								
Cc1ccc2cccc(O)c2n1 [8-hydroxyquinaldine, reference compound]	52	51	62	69	2.4 ± 0.1												
COc1ccc2ccc(Cc3ccc4ccc(OC)c(O)c4n3)nc2c1O.Cl.Cl [Compound 16, 2,2′-(methanediyl)-bis(7-methyloxy-8-hydroxy-2-quinolinium) dichloride]	48 ± 3	44 ± 6	50	53				0.70									
Cc1ccc2cccc(NCCNc3cccc4ccc(C)nc34)c2n1 [Compound 14, N,N′-bis(2-methyl-8-quinolinyl)-1,2-ethanediamine]	45 ± 3	51	57	79 ± 3	1.8 ± 0.1	0.74		1.99	0.78			4.9	1.99 ± 0.11	5.0			
c1cnc2c(Oc3cccc4cccnc34)cccc2c1 [Compound 15, 8,8′-Oxydiquinoline]	35	42	23	72	2 ± 0.1			1.02									
O=C(Nc1ccc2cccc(O)c2n1)c1ccc2cccc(O)c2n1 [Compound 18, 8-hydroxy-N-(8-hydroxy-2-quinolinyl)-2-quinolinecarboxamide]	46 ± 3	49	62 ± 5	66	3 ± 0.1	0.47		0.47	0.45						3.5 (3.5) nanomoles	0.47	3.5 (3.5) nanomoles
Oc1cccc2ccc(Cc3ccc4cccc(O)c4n3)nc12 [Compound 1, 2,2′-methanediyl-bis(8-hydroxyquinoline)]	60 ± 5	61	63	63 ± 4	3.3 ± 0.1	0.54		0.75 ± 0.11	0.76								
Oc1cccc2ccc(CC(Cc3ccc4cccc(O)c4n3)c3ccc4cccc(O)c4n3)nc12 [Compound 11, 2,2′,2″-(1,2,3-Propanetriyl)-tris(8-hydroxyquinoline)]	48	43	45	48	3.7 ± 0.1												

Reference: patent publication US20120277265A1, “NOVEL POLYQUINOLINE DERIVATIVES AND THE THERAPEUTIC USE THEREOF” (CENTRE NATIONAL DE LA RECHERCHE SCIENTIFIQUE (C.N.R.S.), priority 2005, published 2012)
